Holding throughout (assay type): functional
A short description of test [1]: Immunosuppressive activity in anti-CD3/CD28 stimulated C57BL/6 mouse T cell line assessed as inhibition of IFN-gamma level at 0.1 uM incubated for 48 hrs by ELISA analysis relative to control. Particulars: C57BL/6, T-cell.
Test [2] has as its system Jurkat. The test is described as follows: Immunosuppressive activity in PMA and PHA activated human Jurkat cells assessed as inhibition of IL-2 level at 0.1 uM incubated for 48 hrs by ELISA analysis relative to control.
In test [3] the test system is RAW264.7. The test is described as follows: Immunosuppressive activity in LPS-treated mouse RAW264.7 cells assessed as inhibition of TNF-alpha level at 1 uM incubated for 24 hrs by ELISA analysis relative to control.
For test [4], the system named is RAW264.7. The experiment in a line: Immunosuppressive activity in LPS-treated mouse RAW264.7 cells assessed as inhibition of MCP-1 level at 1 uM incubated for 24 hrs by ELISA analysis relative to control.
In test [5] the test system is RAW264.7. The experiment in a line: Immunosuppressive activity in LPS-treated mouse RAW264.7 cells assessed as inhibition of IL-6 level at 20 uM incubated for 24 hrs by ELISA analysis relative to control.
Test [6] in a line: Immunosuppressive activity in anti-CD3/CD28 stimulated C57BL/6 mouse T cell line assessed as inhibition of IFN-gamma level at 20 uM incubated for 48 hrs by ELISA analysis relative to control. Particulars: C57BL/6, T-cell.
Test [7] deals with Jurkat. The experiment in a line: Immunosuppressive activity in PMA and PHA activated human Jurkat cells assessed as inhibition of IL-2 level at 20 uM incubated for 48 hrs by ELISA analysis relative to control.
Test [8] concerns RAW264.7. The test is described as follows: Immunosuppressive activity in LPS-treated mouse RAW264.7 cells assessed as inhibition of TNF-alpha level at 40 uM incubated for 24 hrs by ELISA analysis relative to control.
Test [9] relates to Jurkat. The experiment in a line: Immunosuppressive activity in PMA and PHA activated human Jurkat cells assessed as inhibition of IL-2 level at 40 uM incubated for 48 hrs by ELISA analysis relative to control.
In test [10] the test system is RAW264.7. The experiment in a line: Immunosuppressive activity in LPS-treated mouse RAW264.7 cells assessed as inhibition of MCP-1 level at 40 uM incubated for 24 hrs by ELISA analysis relative to control.
Test [11] relates to RAW264.7. The test is described as follows: Immunosuppressive activity in LPS-treated mouse RAW264.7 cells assessed as inhibition of IL-6 level at 40 uM incubated for 24 hrs by ELISA analysis relative to control.

In the case of `C[C@@H]1C[C@H]2[C@@H]3CCC4=CC(=O)C=C[C@]4(C)[C@@]3(F)[C@@H](O)C[C@]2(C)[C@@]1(O)C(=O)CO` [DEXAMETHASONE], the inhibition at 0.1 µM came out at 98.3% in test [1] and 98.9% in test [2].

As for `C/C=C/C[C@@H](C)[C@@H](O)[C@H]1C(=O)N[C@@H](CC)C(=O)N(C)CC(=O)N(C)[C@@H](CC(C)C)C(=O)N[C@@H](C(C)C)C(=O)N(C)[C@@H](CC(C)C)C(=O)N[C@@H](C)C(=O)N[C@H](C)C(=O)N(C)[C@@H](CC(C)C)C(=O)N(C)[C@@H](CC(C)C)C(=O)N(C)[C@@H](C(C)C)C(=O)N1C` [CYCLOSPORINE], the inhibition at 1 µM in [3] was 70.8%; in test [4] it was 66%.

Consider `Cc1ccoc1CC[C@]1(C)O[C@@]2(CCC(C)Cl)O[C@H]3C[C@H](C)[C@H]4C(=O)[C@@H]1[C@]2(O)[C@H](C)[C@H]43` (some centres not stated), for which the inhibition at 20 µM in [5] was found to be 45.6%; in test [6], 61.2%.

`Cc1ccoc1CC[C@]1(C)O[C@@]2(CC(C)CCl)O[C@H]3C[C@H](C)[C@H]4C(=O)[C@@H]1[C@]2(O)[C@H](C)[C@H]43` (some centres not stated): the inhibition at 20 µM is 38.6% in [5], 33.1% in [7] and 67.4% in [6].

Take `CC(=O)O[C@H]1C[C@H](C)[C@H]2C(=O)C3=C(/C(=C/C(C)C)O[C@]3(C)CCc3occc3C)[C@H](C)[C@H]21`: the inhibition at 40 µM in [8] is 24.3%; in test [9], 21.1%; in [10] it was 31.9%; in test [11], below 10%.

As for `CC(=O)O[C@H]1C[C@H](C)[C@H]2C(=O)C3=C([C@H](C)[C@H]21)[C@@]1(CC[C@H](C)O1)O[C@]3(C)CC[C@@H]1OC(=O)C=C1C`, the inhibition at 40 µM in test [8] is 52.5%; in test [9], below 10%; in test [10] it was 32.2%; in [11], 10.4%.

Values taken from ChEMBL document CHEMBL5390276, “Discovery of Unusual Sesterterpenoids from Colquhounia coccinea var. mollis and Their Metabolic Implications” (2023).
